The text below walks through data of publication PMC7998658, “Phloridzin Acts as an Inhibitor of Protein-Tyrosine Phosphatase MEG2 Relevant to Insulin Resistance” (Molecules, 2021).

The target of data set [1] is T1, PTP-MEG2 (megakaryocyte protein tyrosine phosphatase 2, PTPN9) (Homo sapiens, UniProt P43378).
T1 sequence (P43378 1-593): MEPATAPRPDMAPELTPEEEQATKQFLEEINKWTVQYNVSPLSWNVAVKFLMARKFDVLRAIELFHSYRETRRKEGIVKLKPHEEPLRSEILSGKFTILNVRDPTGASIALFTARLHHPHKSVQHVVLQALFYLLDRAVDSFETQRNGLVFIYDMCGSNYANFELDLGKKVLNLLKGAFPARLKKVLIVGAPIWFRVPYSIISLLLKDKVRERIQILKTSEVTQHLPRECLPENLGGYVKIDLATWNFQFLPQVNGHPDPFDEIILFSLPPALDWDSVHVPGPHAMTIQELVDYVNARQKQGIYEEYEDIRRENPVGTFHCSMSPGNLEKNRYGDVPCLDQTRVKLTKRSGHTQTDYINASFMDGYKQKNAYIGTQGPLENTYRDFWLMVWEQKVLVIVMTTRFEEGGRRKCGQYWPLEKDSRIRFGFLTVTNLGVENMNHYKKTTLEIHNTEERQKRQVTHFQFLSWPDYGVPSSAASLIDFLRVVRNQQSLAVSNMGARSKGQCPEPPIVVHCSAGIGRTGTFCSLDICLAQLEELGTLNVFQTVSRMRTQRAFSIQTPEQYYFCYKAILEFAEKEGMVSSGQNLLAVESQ
As to the kind of experiment: SPR on immobilized purified PTP-MEG2; also DiFMUP enzyme inhibition, IC50 =[…], slow-binding.

Substrate in data set [2]: Cc1cc(=O)oc2c(F)c(OP(=O)(O)O)c(F)cc12
As to the kind of experiment: fluorogenic substrate hydrolysis by purified enzyme; Km from Lineweaver-Burk plots. It is filed as biochemical, Homo sapiens. The protocol: fluorogenic substrate hydrolysis by purified enzyme; Km from Lineweaver-Burk plots on PTP-MEG2 (megakaryocyte protein tyrosine phosphatase 2, PTPN9) | kinetic constants of PTP-MEG2 were determined using DiFMUP as a fluorogenic PTP substrate

For orientation: Kd means the free concentration of one partner at which half of the binding sites on the other are occupied at equilibrium, for simple one-to-one binding. In data set [1], `O=C(CCc1ccc(O)cc1)c1c(O)cc(O)cc1O[C@@H]1O[C@H](CO)[C@@H](O)[C@H](O)[C@H]1O` [phloridzin] had a Kd of 4.66 µM.

B1: PTP-MEG2 (megakaryocyte protein tyrosine phosphatase 2, PTPN9) (Homo sapiens) (protein)
chain: MEPATAPRPDMAPELTPEEEQATKQFLEEINKWTVQYNVSPLSWNVAVKFLMARKFDVLRAIELFHSYRETRRKEGIVKLKPHEEPLRSEILSGKFTILNVRDPTGASIALFTARLHHPHKSVQHVVLQALFYLLDRAVDSFETQRNGLVFIYDMCGSNYANFELDLGKKVLNLLKGAFPARLKKVLIVGAPIWFRVPYSIISLLLKDKVRERIQILKTSEVTQHLPRECLPENLGGYVKIDLATWNFQFLPQVNGHPDPFDEIILFSLPPALDWDSVHVPGPHAMTIQELVDYVNARQKQGIYEEYEDIRRENPVGTFHCSMSPGNLEKNRYGDVPCLDQTRVKLTKRSGHTQTDYINASFMDGYKQKNAYIGTQGPLENTYRDFWLMVWEQKVLVIVMTTRFEEGGRRKCGQYWPLEKDSRIRFGFLTVTNLGVENMNHYKKTTLEIHNTEERQKRQVTHFQFLSWPDYGVPSSAASLIDFLRVVRNQQSLAVSNMGARSKGQCPEPPIVVHCSAGIGRTGTFCSLDICLAQLEELGTLNVFQTVSRMRTQRAFSIQTPEQYYFCYKAILEFAEKEGMVSSGQNLLAVESQ
One may read the Km as the concentration of substrate that gives half-maximal velocity. As for B1, the Michaelis-Menten constant (Km) in data set [2] is 163.1 µM.
